What is called % Inhibition is the change of the read-out against control, counted positive when it falls. A high value points to a strong effect. A word on the IC50: it is the concentration that gives 50% inhibition. Read a high IC50 as lower potency.

Each structure is given as a SMILES string.

For one assay, the system named is purified human Hsp90. The assay can be described thus: Binding Assay: fluorescence polarization with BODIPY-labeled geldanamycin. As to conditions: 5 μM compound, BODIPY-GM 10 nM, Hsp90 30 nM. The procedure, abridged:
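Compounds in 2% DMSO final compete with 10 nM BODIPY-GM for 30 nM purified human Hsp90, incubated overnight at room temperature in pH 7.3 HEPES buffer containing Na2MoO4 and DTT. Polarization (mP, ex/em 485/530) normalized to DMSO gives percent inhibition; autofluorescence-confounded data excluded.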
`CC(=O)Nc1ccc(Sc2nc3c(N)ncn(CCC4CCN(C=O)CC4)c-3n2)c(Cl)c1` [Example 549, N-[4-({6-Amino-3-[2-(1-formylpiperidin-4-yl)ethyl]-3 H-purin-8-yl}thio)-3-chlorophenyl]acetamide]: the “% Inhibition at 5 μM Compound Concentration” value (“% Inhibition” below) is on record as 11.00%.

For `Nc1ncn(CCC2CCN(C=O)CC2)c2nc(Sc3ncccc3Br)nc1-2` [Example 551, 4-(2-{6-Amino-8-[(3-bromopyridin-2-yl)thio]-3 H-purin-3-yl}ethyl)piperidine-1-carbaldehyde], the “% Inhibition” value is recorded as 0.00%.

Regarding `Nc1ncn(CCC2CCN(C=O)CC2)c2nc(Sc3cc(OCc4ccccc4)c(OCc4ccccc4)cc3Br)nc1-2` [Example 554, 4-[2-(6-Amino-8-{[4,5-bis (benzyloxy)-2-bromophenyl]thio}-3 H-purin-3-yl)ethyl]piperidine-1-carbaldehyde], the “% Inhibition” value worked out at 0.00%.

As for `COc1cc(Br)c(Sc2nc3c(N)ncn(CCC4CCN(C(C)=O)CC4)c-3n2)cc1OC` [Example 566, 3-[2-(1-Acetylpiperidin-4-yl)ethyl]-8-[(2-bromo-4,5-dimethoxyphenyl)thio]-3 H-purin-6-amine], the “% Inhibition” value is listed as 1.00%.

With `COc1ccc(Sc2nc3c(N)ncn(CCC4CCN(C(C)=O)CC4)c-3n2)cc1F` [Example 568, 3-[2-(1-Acetylpiperidin-4-yl)ethyl]-8-[(3-fluoro-4-methoxyphenyl)thio]-3 H-purin-6-amine], the “% Inhibition” value was 0.00%.

`COc1c(F)cc(Sc2nc3c(N)ncn(CCC4CCN(C(C)=O)CC4)c-3n2)cc1Cl` [Example 570, 3-[2-(1-Acetylpiperidin-4-yl)ethyl]-8-[(3-chloro-5-fluoro-4-methoxyphenyl)thio]-3 H-purin-6-amine]: the “% Inhibition” value stood at 0.00%.

Take `CC(=O)N1CCC(CCn2cnc(N)c3nc(Sc4ccc5c(c4)OC(F)(F)O5)nc2-3)CC1` [Example 572, 3-[2-(1-Acetylpiperidin-4-yl)ethyl]-8-[(2,2-difluoro-1,3-benzodioxol-5-yl)thio]-3 H-purin-6-amine]: the “% Inhibition” value stood at 0.00%.

`N#CC1CCN(CCn2c(Sc3cc4c(cc3Br)OCO4)nc3ncnc(N)c32)CC1` [Example 576, 1-(2-{6-Amino-8-[(6-bromo-1,3-benzodioxol-5-yl)thio]-7 H-purin-7-yl}ethyl)piperidine-4 - carbonitrile]: the “% Inhibition” value is on record as 31%.

Still in this assay, the particulars now being: BODIPY-GM 10 nM, Hsp90 30 nM.
With `Nc1ncnc2c1nc(Sc1ncccc1Br)n2CCC1CCN(C=O)CC1` [Example 550, 4-(2-{6-Amino-8-[(3-bromopyridin-2-yl)thio]-9 H-purin-9-yl}ethyl)piperidine-1-carbaldehyde], the 50% inhibitory concentration (IC50) is > 5000 nM.

As for `Nc1ncnc2c1nc(Sc1cc(OCc3ccccc3)c(OCc3ccccc3)cc1Br)n2CCC1CCN(C=O)CC1` [Example 553, 4-[2-(6-Amino-8-{[4,5-bis (benzyloxy)-2-bromophenyl]thio}-9 H-purin-9-yl)ethyl]piperidine-1-carbaldehyde], the concentration for half-maximal inhibition (IC50) was > 5000 nM.

`Nc1ncnc2c1nc(Sc1ccc3c(c1)CCC3=O)n2CCC1CCN(C=O)CC1` [Example 555, 4-(2-{6-Amino-8-[(1-oxo-2,3-dihydro-1 H-inden-5-yl)thio]-9 H-purin-9-yl}ethyl)piperidine-1-carbaldehyde]: the IC50 worked out at 700 nM.

Turning to `COc1c(Sc2nc3c(N)ncnc3n2CCC2CCN(C=O)CC2)cc(C)c2c1CCC2` [Example 556, 4-(2-{6-Amino-8-[(4-methoxy-7-methyl-2,3-dihydro-1 H-inden-5-yl)thio]-9 H-purin-9-yl}ethyl)piperidine-1-carbaldehyde], the IC50 is 2000 nM.

The molecule `COc1ccc(OC)c(Sc2nc3c(N)ncnc3n2CCC2CCN(C(C)=O)CC2)c1` [Example 557, 9-[2-(1-Acetylpiperidin-4-yl)ethyl]-8-[(2,5-dimethoxyphenyl)thio]-9 H-purin-6-amine] had an IC50 of 1500 nM.

Regarding `COc1cc(Sc2nc3c(N)ncnc3n2CCC2CCN(C=O)CC2)c(OC)cc1Cl` [Example 558, 4-(2-{6-Amino-8-[(4-chloro-2,5-dimethoxyphenyl)thio]-9 H-purin-9-yl}ethyl)piperidine-1-carbaldehyde], the IC50 is > 5000 nM.

For the molecule `COc1cc(F)c(Sc2nc3c(N)ncnc3n2CCC2CCN(C(C)=O)CC2)cc1F` [Example 559, 9-[2-(1-Acetylpiperidin-4-yl)ethyl]-8-[(2,5-difluoro-4-methoxyphenyl)thio]-9 H-purin-6-amine], the IC50 is > 5000 nM.

Consider `CC(=O)N1CCC(CCn2c(Sc3cc(F)c(F)cc3Br)nc3c(N)ncnc32)CC1` [Example 560, 9-[2-(1-Acetylpiperidin-4-yl)ethyl]-8-[(2-bromo-4,5-difluorophenyl)thio]-9 H-purin-6-amine], for which the half-inhibitory concentration (IC50) is > 5000 nM.

As for `CC(=O)N1CCC(CCn2c(Sc3ccc4c(c3)OCO4)nc3c(N)ncnc32)CC1` [Example 561, 9-[2-(1-Acetylpiperidin-4-yl)ethyl]-8-(1,3-benzodioxol-5-ylthio)-9 H-purin-6-amine], the IC50 is > 5000 nM.

For the molecule `COc1cc(Sc2nc3c(N)ncnc3n2CCC2CCN(C(C)=O)CC2)c(OC)cc1Cl` [Example 563, 9-[2-(1-Acetylpiperidin-4-yl)ethyl]-8-[(4-cloro-2,5-dimethoxyphenyl)thio]-9 H-purin-6-amine], the IC50 is > 5000 nM.

Consider `COc1cc(Br)c(Sc2nc3c(N)ncnc3n2CCC2CCN(C(C)=O)CC2)cc1OC` [Example 565, 9-[2-(1-Acetylpiperidin-4-yl)ethyl]-8-[(2-bromo-4,5-dimethoxyphenyl)thio]-9 H-purin-6-], for which the IC50 is > 5000 nM.

Consider `COc1ccc(Sc2nc3c(N)ncnc3n2CCC2CCN(C(C)=O)CC2)cc1F` [Example 567, 9-[2-(1-Acetylpiperidin-4-yl)ethyl]-8-[(3-fluoro-4-methoxyphenyl)thio]-9 H-purin-6-amine], for which the IC50 is > 5000 nM.

As for `COc1c(F)cc(Sc2nc3c(N)ncnc3n2CCC2CCN(C(C)=O)CC2)cc1Cl` [Example 569, 9-[2-(1-Acetylpiperidin-4-yl)ethyl]-8-[(3-chloro-5-fluoro-4-methoxyphenyl)thio]-9 H-purin-6-amine], the IC50 was > 5000 nM.

`CC(=O)N1CCC(CCn2c(Sc3ccc4c(c3)OC(F)(F)O4)nc3c(N)ncnc32)CC1` [Example 571, 9-[2-(1-Acetylpiperidin-4-yl)ethyl]-8-[(2,2-difluoro-1,3-benzodioxol-5-yl)thio]-9 H-purin-6-amine]: the IC50 was > 5000 nM.

For the molecule `Nc1ncnc2c1nc(Sc1cc3c(cc1Br)OCO3)n2CCC1CCN(Cc2ccc(Cl)cc2)CC1` [Example 573, 8-[(6-Bromo-1,3-benzodioxol-5-yl)thio]-9-{2-[1-(4-chlorobenzyl)piperidin-4-yl]ethyl}-9 H-purin-6-amine], the IC50 was 1400 nM. That is a single-digit micromolar value.

`Nc1ncnc2c1nc(Sc1cc3c(cc1Br)OCO3)n2CCNc1cccc2cccnc12` [Example 574, N-(2-{6-Amino-8-[(6-bromo-1,3-benzodioxol-5-yl)thio]-9 H-purin-9-yl}ethyl)quinolin-8-amine] registered a half-maximal inhibitory concentration (IC50) of 1800 nM.

In turn, `N#CC1CCN(CCn2c(Sc3cc4c(cc3Br)OCO4)nc3c(N)ncnc32)CC1` [Example 575, 1-(2-{6-Amino-8-[(6-bromo-1,3-benzodioxol-5-yl)thio]-9 H-purin-9-yl}ethyl)piperidine-4-carbonitrile] had an IC50 of 800 nM.

For the origin of these results see patent US7595401B2, “Therapeutic compounds and their use in cancer” (Myriad Pharmaceuticals, Inc., priority 2006, dated 2009).
